# Results as given in PubChem BioAssay (NCI).
#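 All cell lines were grown in 96-well plates and treated with compound for 48 hours. GI50 is the concentration that inhibits growth by half. TGI denotes the concentration required for complete inhibition of growth.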
# Tests used:
# Experiment in all cases: growth of human tumour cells (NCI), 48 h
# [1] = tested on: A549 NSCLC
# [2] = tested on: ACHN renal
# [3] = tested on: M14 melanoma
# [4] = tested on: MALME-3M melanoma
# [5] = tested on: RXF 393 renal
# [6] = tested on: SK-MEL-28 melanoma
# [7] = tested on: SNB-19 CNS
# [8] = tested on: U251 CNS
# [9] = tested on: CCRF-CEM leukemia
# [10] = tested on: COLO 205 colon
# [11] = tested on: HCC-2998 colon
# [12] = tested on: HCT-116 colon
# [13] = tested on: HCT-15 colon
# [14] = tested on: HL-60(TB) leukemia
# [15] = tested on: HOP-62 NSCLC
# [16] = tested on: HS 578T breast
# [17] = tested on: IGROV1 ovarian
# [18] = tested on: KM12 colon
# [19] = tested on: MCF7 breast
# [20] = tested on: MDA-MB-435
# [21] = tested on: MOLT-4 leukemia
# [22] = tested on: NCI-H23 lung
# [23] = tested on: NCI-H460 lung
# [24] = tested on: NCI-H522 lung
# [25] = tested on: NCI/ADR-RES ovarian
# [26] = tested on: OVCAR-3 ovarian
# [27] = tested on: OVCAR-4 ovarian
# [28] = tested on: OVCAR-5 ovarian
# [29] = tested on: OVCAR-8 ovarian
# [30] = tested on: RPMI-8226 leukemia
# [31] = tested on: SF-268 CNS
# [32] = tested on: SF-539 CNS
# [33] = tested on: SK-MEL-2 melanoma
# [34] = tested on: SK-MEL-5 melanoma
# [35] = tested on: SK-OV-3 ovarian
# [36] = tested on: SR leukemia
# [37] = tested on: T-47D breast
# [38] = tested on: TK-10 renal
# [39] = tested on: UO-31 renal
# [40] = tested on: DU-145 prostate
# [41] = tested on: K-562 leukemia
# [42] = tested on: NCI-H226 lung
# [43] = tested on: SF-295 CNS
# [44] = tested on: SW-620 colon
smiles,measurement,setting,value
CC1(C)COC(c2ccc(CC(Cc3ccc(C4(C(C)(C)C)OCC(C)(C)CO4)cc3)C(=O)O)cc2)(C(C)(C)C)OC1,GI50,[1],2.06 µM
same,TGI,[1],> 100 µM
same,GI50,[2],2.8 µM
same,TGI,[2],> 100 µM
same,GI50,[3],> 100 µM
same,TGI,[3],> 100 µM
same,GI50,[4],> 100 µM
same,TGI,[4],> 100 µM
same,GI50,[5],2.86 µM
same,TGI,[5],> 100 µM
same,GI50,[6],> 100 µM
same,TGI,[6],> 100 µM
same,GI50,[7],4.14 µM
same,TGI,[7],> 100 µM
same,GI50,[8],3.03 µM
same,TGI,[8],> 100 µM
COc1ccc(C(=O)/C=C/c2cc(-c3cc(OC)c(OC)c(OC)c3)n[nH]2)cc1,GI50,[2],1.96 µM
same,TGI,[2],3.63 µM
same,GI50,[9],1.42 µM
same,TGI,[9],5.85 µM
same,GI50,[10],1.73 µM
same,TGI,[10],3.24 µM
same,GI50,[11],1.78 µM
same,TGI,[11],3.4 µM
same,GI50,[12],1.73 µM
same,TGI,[12],5.86 µM
same,GI50,[13],1.58 µM
same,TGI,[13],4.37 µM
same,GI50,[14],2.16 µM
same,TGI,[14],4.78 µM
same,GI50,[15],1.76 µM
same,TGI,[15],3.77 µM
same,GI50,[16],3.6 µM
same,TGI,[16],> 100 µM
same,GI50,[17],2.21 µM
same,TGI,[17],4.81 µM
same,GI50,[18],1.56 µM
same,TGI,[18],3.06 µM
same,GI50,[3],2.2 µM
same,TGI,[3],4.93 µM
same,GI50,[19],1.15 µM
same,TGI,[19],2.96 µM
same,GI50,[20],2.2 µM
same,TGI,[20],5.7 µM
same,GI50,[21],2.67 µM
same,TGI,[21],6.82 µM
same,GI50,[22],3.04 µM
same,TGI,[22],12.2 µM
same,GI50,[23],1.72 µM
same,TGI,[23],3.75 µM
same,GI50,[24],1.47 µM
same,TGI,[24],3.2 µM
same,GI50,[25],2.76 µM
same,TGI,[25],9.85 µM
same,GI50,[26],1.74 µM
same,TGI,[26],3.56 µM
same,GI50,[27],2.2 µM
same,TGI,[27],8.32 µM
same,GI50,[28],1.88 µM
same,TGI,[28],3.78 µM
same,GI50,[29],2.43 µM
same,TGI,[29],8.26 µM
same,GI50,[30],0.433 µM
same,TGI,[30],2.49 µM
same,GI50,[5],1.27 µM
same,TGI,[5],2.56 µM
same,GI50,[31],1.99 µM
same,TGI,[31],5.12 µM
same,GI50,[32],1.62 µM
same,TGI,[32],3.08 µM
same,GI50,[33],4.14 µM
same,TGI,[33],19.6 µM
same,GI50,[6],2.12 µM
same,TGI,[6],4.42 µM
same,GI50,[34],1.72 µM
same,TGI,[34],3.24 µM
same,GI50,[35],3.99 µM
same,TGI,[35],20.5 µM
same,GI50,[36],0.347 µM
same,TGI,[36],23.9 µM
same,GI50,[37],2.31 µM
same,TGI,[37],13 µM
same,GI50,[38],2.22 µM
same,TGI,[38],5.77 µM
same,GI50,[39],1.45 µM
same,TGI,[39],2.84 µM
CC(=O)O[C@H]1CC2C(C3CCC(C(C)CCC(N)=O)[C@]31C)[C@H](OC(C)=O)C[C@@H]1CC3(CC[C@]21C)OOC1(CC[C@]2(C)C4C[C@H](OC(C)=O)[C@]5(C)C(C(C)CCC(N)=O)CCC5C4[C@H](OC(C)=O)C[C@@H]2C1)OO3 (some centres undefined),TGI,[10],2.84 µM
same,TGI,[40],3.49 µM
same,TGI,[14],4.19 µM
same,TGI,[15],3.86 µM
same,TGI,[16],4.55 µM
same,TGI,[17],3.28 µM
same,TGI,[41],> 100 µM
same,TGI,[19],4.08 µM
same,TGI,[42],2.79 µM
same,TGI,[26],2.85 µM
same,TGI,[29],3.66 µM
same,TGI,[30],> 100 µM
same,TGI,[5],3.34 µM
same,TGI,[31],3.37 µM
same,TGI,[43],3.2 µM
same,TGI,[35],3.95 µM
same,TGI,[44],> 100 µM
same,TGI,[39],2.36 µM
